Data: patent US20260240869A1, “ANTIPSEUDOMONAL FUSIDIC ACID COMPOUNDS” (priority 2022, published 2026)
In brackets after ≈: the same amount, converted by molar mass. Where two headings read alike, the source gives them in different places.

What was measured:
E. coli MG1655 [1] = assay: LC-MS/MS whole-cell accumulation assay, E. coli MG1655; type: cell-based; conditions: for EC accum.: E. coli, value ± s.e.m. (Chart 2); for EC Accumulation (FA): E. coli MG1655, accumulation of FA reported (Table 8)
Description: (§1) Accumulation Assay. The accumulation assay was performed in triplicate in batches of ten samples, with each batch containing tetracycline or ciprofloxacin as a positive control. P. aeruginosa PAO1, PAO1 A6, PA14, PA14 A40, and PA1280, and E. coli MG1655 were used in these experiments. For each replicate, 2.5 mL (E. coli) or 5 mL (P. aeruginosa) of an overnight culture was diluted into 250 mL of fresh Luria-Bertani broth (Lennox) or Tryptic Soy Broth (TSB) and grown at 37° C. with shaking to an optical density (OD600) of 0.55-0.60. The bacteria were pelleted at 3220 r.c.f. for 10 min at 4° C., and the supernatant was discarded. The pellets were resuspended in 40 mL of phosphate buffered saline (PBS) and pelleted as before, and the supernatant was discarded. The pellets were resuspended in 8.8 mL of fresh PBS and aliquoted into ten, 1.5 mL Eppendorf tubes (875 μL each). The number of colony-forming units (CFUs) was determined by a calibration curve. The samples were equilibrated at 37° C. with shaking for 5 min; compound was added (final concentration=50 μM), and then the samples were incubated at 37° C. with shaking for either 10 min. These time points were short enough to minimize metabolic and growth changes (no changes in OD600 or CFU count observed). After incubation, 800 μL of the cultures was carefully layered on 700 μL of silicone oil (9:1 AR20/Sigma High Temperature, cooled to −78° C.). Bacteria were pelleted through the oil by centrifuging at 13 000 r.c.f. for 2 min at room temperature (with the supernatant remaining above the oil); the supernatant and oil were then removed by pipetting. To lyse the samples, each pellet was dissolved in […] of water, and then, they were subjected to three (E. coli) or four (P. aeruginosa) freeze-thaw cycles of 3 min in liquid nitrogen followed by 3 min in a water bath at 65° C. P. aeruginosa samples were then treated with 50 µM DNase and RNase and incubated at 37° C. for 15 minutes. The lysates were pelleted at 13 000 r.c.f. for 2 min at room temperature, and the supernatant was collected ([…]). The debris was resuspended in 100 μL of methanol and pelleted as before. The supernatants were removed and combined with the previous supernatants collected. Finally, the remaining debris was removed by centrifuging at 20 000 r.c.f. for 10 min at room temperature. Supernatants were analyzed by LC-MS/MS.
(§2) Samples were analyzed with the 5500 QTRAP LC/MS/MS system (AB Sciex) with a 1200 series HPLC system (Agilent Technologies) including a degasser, an autosampler, and a binary pump. Liquid chromatography separation was performed on an Agilent SB-Aq column (4.6×50 mm, 5 μm) (Agilent Technologies) with mobile phase A (0.1% formic acid in water) and mobile phase B (0.1% formic acid in acetonitrile). The flow rate was 0.3 mL/min. The linear gradient was as follows: 0-3 min, 100% mobile phase A; 10-15 min, 2% mobile phase A; 15.5-21 min, 100% mobile phase A. The autosampler was set at 5° C. The injection volume was 15 μL. Mass spectra were acquired with both positive electrospray ionization at the ion spray voltage of 5500 V and negative electrospray ionization at the ion spray voltage of −4500 V. The source temperature was 450° C. The curtain gas, ion source gas 1, and ion source gas 2 were 33, 50, and 65, respectively. Multiple reaction monitoring was used to quantify the metabolites. Power analysis was not used to determine the number of replicates. Error bars represent the standard error of the mean of three biological replicates. The statistical significance of the accumulation was determined using a two sample Welch's t test (one-tailed test, assuming unequal variance) relative to the negative controls. All compounds evaluated in the biological assays were >95% pure.

P. aeruginosa PAO1 [2] = assay: LC-MS/MS whole-cell accumulation assay, P. aeruginosa PAO1; type: cell-based, Pseudomonas aeruginosa; conditions: for PA accum.: P. aeruginosa, value ± s.e.m. (Chart 2)
Description: as §1, §2
MBN assay. Assays measuring permeabilization by polymyxin B nonapeptide (PMBN) were performed as above, with the addition of 8 μg/mL PMBN immediately before the compound of interest was added.

P. aeruginosa PAO1 [3] = assay: MIC, CLSI broth microdilution, P. aeruginosa PAO1; type: cell-based, Pseudomonas aeruginosa; conditions: for MIC: Pseudomonas aeruginosa
Description: (§3) Antimicrobial Susceptibility Tests. Susceptibility testing was performed in biological triplicate, using the microdilution broth method as outlined by the Clinical and Laboratory Standards Institute. Bacteria were cultured with cation-adjusted Meuller-Hinton broth (Sigma-Aldrich; catalogue number: 90922) or Luria-Bertani (LB) broth (Lennox) in round-bottom 96-well plates (Corning; catalogue number: 3788).

E. coli MG1655 [4] = assay: MIC, E. coli MG1655; type: cell-based; conditions: Escherichia coli, MG1655; CLSI (Table 8); read-out: E. coli MG1655 MIC
Description: as §3

P. aeruginosa PAΔ6 [5] = assay: MIC, efflux pump knockout strain PAΔ6; type: cell-based, Pseudomonas aeruginosa
Description: as §3

P. aeruginosa PAΔ6 [6] = assay: LC-MS/MS whole-cell accumulation assay, PAΔ6; type: cell-based, Pseudomonas aeruginosa
Description: as §1, §2

WT EC = conditions: retrospective literature analysis (Table 6); cited from earlier work
WT PA = conditions: retrospective literature analysis (Table 6); cited from earlier work
[7] = PAO1, CLSI (Table 8), read-out: P. aeruginosa PAO1 MIC

Compound: Cn1cc(C2=C(c3c4n(c5ccccc35)CC[C@H](CN)C4)C(=O)NC2=O)c2ccccc21 [Compound 55]
- EC accum. (E. coli MG1655 [1]): 17 ± 7 nmol/10^12 CFUs
- PA accum. (P. aeruginosa PAO1 [2]): 1193 ± 27 nmol/10^12 CFUs

Compound: CC(=O)O[C@H]1C[C@@]2(C)[C@@H](C[C@@H](O)[C@H]3[C@@]4(C)CC[C@@H](O)[C@@H](C)[C@@H]4CC[C@@]32C)/C1=C(\CCC=C(C)C)C(=O)NCCCNCCCNCCCN [FA polyamine]
- antibacterial activity (in words) (P. aeruginosa PAO1 [3]; Chart 6, strain not given): no longer has potent antibacterial activity
- increase in accumulation relative to FA (P. aeruginosa PAO1 [2]; text b129): 30 -fold

Compound: CC(=O)O[C@H]1C[C@@]2(C)[C@@H](C[C@@H](O)[C@H]3[C@@]4(C)CC[C@@H](O)[C@@H](C)[C@@H]4CC[C@@]32C)/C1=C(\CCC=C(C)C)C(=O)O/N=C(\N)CNCCCN [FA prodrug 2]
- MIC (E. coli MG1655 [4]): 256 µg/mL (≈ 397 µM)
- MIC (P. aeruginosa PAO1 [3]; [7]): > 256 µg/mL
- EC Accumulation (FA) (E. coli MG1655 [1]): 969 ± 71 nmol/1012 CFUs

Compound: N#Cc1ccc(-c2cncc3c2CCCC3N)cc1 (stereo not drawn) [Compound 52]
- EC accum. (E. coli MG1655 [1]): 929 ± 39 nmol/10^12 CFUs
- PA accum. (P. aeruginosa PAO1 [2]): 161 ± 12 nmol/10^12 CFUs

Compound: Cc1cc(NS(=O)(=O)c2ccc(N)cc2)no1 [Sulfamethoxazole]
- PAΔ6 MIC (P. aeruginosa PAΔ6 [5]; MH or LB broth (Table 7)): 4 µg/mL
- Fold change (MIC) (P. aeruginosa PAΔ6 [5]; WT MIC / PAΔ6 MIC (Table 7)): >16
- MIC (P. aeruginosa PAO1 [3]; WT P. aeruginosa PAO1, MH or LB broth (Table 7), read-out: WT MIC): > 64 µg/mL
- WT Accum (P. aeruginosa PAO1 [2]; WT PAO1, ± s.e.m. (Table 7)): 101 ± 26 nmol/10^12 CFUs
- Fold change (Accum) (P. aeruginosa PAΔ6 [6]; PAΔ6 Accum / WT Accum (Table 7)): 4.2
- PAΔ6 Accum (P. aeruginosa PAΔ6 [6]; ± s.e.m. (Table 7)): 420 ± 15 nmol/10^12 CFUs

Compound: CC(=O)O[C@H]1C[C@@]2(C)[C@@H](C[C@@H](O)[C@H]3[C@@]4(C)CC[C@@H](O)[C@@H](C)[C@@H]4CC[C@@]32C)/C1=C(\CCC=C(C)C)C(=O)O/N=C(\N)CNCCCNCCCN [FA prodrug 3]
- MIC (E. coli MG1655 [4]): 32 µg/mL (≈ 45.6 µM)
- MIC (P. aeruginosa PAO1 [3]; [7]): 128 µg/mL (≈ 182 µM)
- EC Accumulation (FA) (E. coli MG1655 [1]): 1764 ± 37 nmol/1012 CFUs

Compound: CCNc1cc(F)cc2c1[nH]c1ncc(-c3cnc(OC)nc3)c(-n3ncc4c3CNC4)c12 [Compound 17x]
- WT EC MIC (WT EC): 0.81 µg/mL
- WT PA MIC (WT PA): 10 µg/mL

Compound: C=C[C@]1(C)C[C@@H](OC(=O)CSC(C)(C)CNC(=O)[C@H](N)C(C)C)[C@]2(C)[C@H](C)CC[C@]3(CCC(=O)[C@H]32)[C@@H](C)[C@@H]1O [Valnemulin]
- Fold change (P. aeruginosa PAΔ6 [5]; MIC ratio WT PAO1 / PAΔ6 (Table 2)): 2048
- PAΔ6 MIC (P. aeruginosa PAΔ6 [5]; efflux pump KO strain, MH or LB broth (Table 2)): 0.125 µg/mL
- MIC (P. aeruginosa PAO1 [3]; PAO1, read-out: PAO1 MIC): 256 µg/mL (≈ 453 µM)
- MIC (P. aeruginosa PAO1 [3]; PAO1, read-out: WT MIC): 256 µg/mL (≈ 453 µM)
- PAO1 + PMBN MIC (P. aeruginosa PAO1 [3]; co-treatment of 8 μg/mL of PMBN, MH broth): 1 µg/mL
- change of accumulation upon membrane permeabilization (P. aeruginosa PAO1 [2]; treatment with PMBN, FIG. 1b): significant increase in accumulation
- change of accumulation in efflux pump knockout PAΔ6 versus WT PAO1 (P. aeruginosa PAΔ6 [6]; FIG. 1c): increase in accumulation

Compound: NCCCCCCNS(=O)(=O)c1cccc2ccccc12 [Compound 54]
- EC accum. (E. coli MG1655 [1]): 108 ± 17 nmol/10^12 CFUs
- PA accum. (P. aeruginosa PAO1 [2]): 399 ± 63 nmol/10^12 CFUs

Compound: N[C@H]1CO[C@H]2[C@@H]1OC[C@H]2OS(=O)(=O)c1ccc(-c2ccccc2)cc1 [Compound 48]
- EC accum. (E. coli MG1655 [1]): 1965 ± 291 nmol/10^12 CFUs
- PA accum. (P. aeruginosa PAO1 [2]): 282 ± 37 nmol/10^12 CFUs

Compound: NC1CCCc2c1cncc2N1Cc2cc(Cl)ccc2C1=O (stereo not drawn) [Compound 51]
- EC accum. (E. coli MG1655 [1]): 500 ± 10 nmol/10^12 CFUs
- PA accum. (P. aeruginosa PAO1 [2]): 222 ± 11 nmol/10^12 CFUs
